T1: PduQ (1,3-propanediol oxidoreductase) (Limosilactobacillus reuteri, UniProt A5VM99)
T1 construct: gene Lreu_1734
T1 sequence (A5VM99 1-373): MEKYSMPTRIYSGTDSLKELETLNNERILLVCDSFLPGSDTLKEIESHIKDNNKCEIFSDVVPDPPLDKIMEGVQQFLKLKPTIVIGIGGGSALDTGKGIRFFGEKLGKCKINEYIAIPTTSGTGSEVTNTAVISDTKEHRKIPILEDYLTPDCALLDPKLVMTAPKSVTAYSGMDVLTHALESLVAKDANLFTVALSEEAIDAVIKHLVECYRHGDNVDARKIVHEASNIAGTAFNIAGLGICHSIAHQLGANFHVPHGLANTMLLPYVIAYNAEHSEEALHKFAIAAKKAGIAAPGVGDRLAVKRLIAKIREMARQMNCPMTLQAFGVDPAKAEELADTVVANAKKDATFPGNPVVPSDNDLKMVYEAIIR


How the values were obtained:
[1] = biological target: T1, PduQ (1,3-propanediol oxidoreductase); test: NADH oxidation at […] nm; assay type: biochemical; settings: NADH 0.2 mM, 50 mM potassium phosphate pH 7.0; aldehyde reduction
[2] = biological target: T2, PduP (coenzyme-A acylating propionaldehyde dehydrogenase) (Limosilactobacillus reuteri, UniProt A5VMA0); test: NADH formation at […] nm; assay type: biochemical; settings: NAD+ 5 mM, HS-CoA 0.43 mM, 50 mM potassium phosphate pH 7.0, 1 mM DTT, 30 °C
T2 construct: gene Lreu_1735

purified protein = substrate: O=CCCO; test: purified protein; assay type: biochemical, Limosilactobacillus reuteri

Row | Molecule | Km [1] | Km [2] | Km (purified protein; NADH 0.2 mM, 50 mM potassium phosphate pH 7.0, aldehyde reduction) [mM] | Km (purified protein; NAD+ 5 mM, HS-CoA 0.43 mM, 50 mM potassium phosphate pH 7.0, 1 mM DTT, 30 °C) [mM]
1 | CCCCCCCCCC=O [Decylaldehyde] | Hexanaldehyde (C6)< Octanaldehyde (C8)< Decylaldehyde (C10) | Hexanaldehyde (C6)< Octanaldehyde (C8)< Decylaldehyde (C10) | – | –
2 | CCCCCCCC=O [Octanaldehyde] | Pentanaldehyde (C5)< Hexanaldehyde (C6)< Octanaldehyde (C8) | Pentanaldehyde (C5)< Hexanaldehyde (C6)< Octanaldehyde (C8) | – | –
3 | PduQ (1,3-propanediol oxidoreductase) (Limosilactobacillus reuteri subsp. reuteri) (protein) MEKYSMPTRIYSGTDSLKELETLNNERILLVCDSFLPGSDTLKEIESHIKDNNKCEIFSDVVPDPPLDKIMEGVQQFLKLKPTIVIGIGGGSALDTGKGIRFFGEKLGKCKINEYIAIPTTSGTGSEVTNTAVISDTKEHRKIPILEDYLTPDCALLDPKLVMTAPKSVTAYSGMDVLTHALESLVAKDANLFTVALSEEAIDAVIKHLVECYRHGDNVDARKIVHEASNIAGTAFNIAGLGICHSIAHQLGANFHVPHGLANTMLLPYVIAYNAEHSEEALHKFAIAAKKAGIAAPGVGDRLAVKRLIAKIREMARQMNCPMTLQAFGVDPAKAEELADTVVANAKKDATFPGNPVVPSDNDLKMVYEAIIR | – | – | 28.7 | –
4 | PduP (coenzyme-A acylating propionaldehyde dehydrogenase) (Limosilactobacillus reuteri subsp. reuteri) (protein) MQINDIESAVRKILAEELDNASSSSANVAATTDNGHRGIFTNVNDAIAAAKAAQEIYRDKPIAVRQQVIDAIKEGFRPYIEKMAKDIKEETGMGTVEAKIAKLNNALYNTPGPEILEPVVENGDGGMVMYERLPYGVIGAVGPSTNPSETVIANAIMMLAGGNTLYFGAHPGAKNVTRWTIEKMNDFIADATGLHNLVVSIETPTIESVQQMMKHPDIAMLAVTGGPAVVHQAMTSGKKAVGAGPGNPPAMVDATADIDLAAHNIITSASFDNDILCTAEKEVVAESSIKDELIRKMQDEGAFVVNREQADKLADMCIQENGAPDRKFVGKDATYILDQANIPYTGHPVEIICELPKEHPLVMTEMLMPILPVVSCPTFDDVLKTAVEVEKGNHHTATIHSNNLKHINNAAHRMQCSIFVVNGPSYVGTGVADNGAHSGASALTIATPTGEGTCTARTFTRRVRLNSPQGFSVRNWY | – | – | – | 10.1

Source: paper PMC5619818, “Exploring Lactobacillus reuteri DSM20016 as a biocatalyst for transformation of longer chain 1,2-diols: Limits with microcompartment” (PLoS ONE, 2017)
